Experimental data: patent US6841549B1, “Condensed imidazole compounds and a therapeutic agent for diabetes mellitus” (Eisai Co., Ltd., priority 1999, dated 2005)
Counter-ions that a name gives are not always drawn.

Experiments:
[1] = system: primary cultured rat hepatic cells; assay: Inhibition of NECA-stimulated glucose production in primary cultured rat hepatic cells; type: cell-based; settings: primary cultured Wistar rat hepatic cells, NECA 0.1, 1 hour; read-out: IC50 for inhibition of NECA-stimulated glucose release
Method: Hepatic cells were separated by a collagenase perfusion method from livers of male rats of Wistar strain and subjected to a primary culture in a William's Medium E containing 5% calf serum, 10^−6 M insulin and 10^−7 M dexamethasone. After 1 day, the hepatic cells were washed with a Krebs-Ringer Bicarbonate buffer (mM) (NaCl 118, KCl 4.8, KH2PO4 1.2, MgSO4 1.2, CaCl2 3.4, HEPES 10, NaHCO3 25) pH 7.4 (KRB) containing 10 mM HEPES and 0.1% bovine serum albumin and KRB was added thereto, then incubated at 37° C. After 30 minutes, NECA (N-ethylcarboxamide adenosine) (final concentration: […]) and a test compound were added thereto at the same time, the mixture was incubated for additional one hour, and the amount of glucose released into the incubation medium was measured.

adenosine A2a receptor = molecular target: T1, adenosine A2a receptor (Homo sapiens, UniProt P29274); assay: Adenosine A2a receptor binding assay (3H-CGS21680); settings: 3H-CGS21680 binding, membrane over-expressing A2a receptor, Cheng-Prusoff; read-out: inhibition constant (Ki value)
T1 construct: purchased Receptor Biology Inc
T1 sequence (P29274 whole entry): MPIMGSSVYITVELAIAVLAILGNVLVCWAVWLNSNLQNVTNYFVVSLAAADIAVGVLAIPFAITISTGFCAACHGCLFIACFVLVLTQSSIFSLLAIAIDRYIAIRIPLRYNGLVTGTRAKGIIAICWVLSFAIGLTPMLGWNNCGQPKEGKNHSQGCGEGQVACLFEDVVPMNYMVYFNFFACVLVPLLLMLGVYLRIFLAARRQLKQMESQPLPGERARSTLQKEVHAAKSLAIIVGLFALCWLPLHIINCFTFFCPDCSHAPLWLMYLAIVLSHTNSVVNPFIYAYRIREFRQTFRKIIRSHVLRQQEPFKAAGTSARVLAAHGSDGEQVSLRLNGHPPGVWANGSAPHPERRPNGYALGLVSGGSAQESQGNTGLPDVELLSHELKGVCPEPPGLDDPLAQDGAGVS
Method: A membrane specimen prepared by over-expression of adenosine A2a receptor was purchased from Receptor Biology Inc., and used to carry out adenosine A2a receptor binding assays. The purchased membrane specimen was suspended at a concentration of 22.2 μg/ml inan incubation buffer (20 mM HEPES, 10 mm MgCl2 and 100 mM NaCl, pH 7.4). To 0.45 ml of this membrane specimen were added 0.25ml of tritium-labeled^3H-CGS21680 (500 nM; 30 Ci/mmol) and 0.025 ml of the test compound. The solution of the test compound was prepared by dissolving the compound at a concentration of 20 mM in DMSO and then successively diluting the solution 10-fold with the incubation buffer. […] Thereafter, the glass fiber filter was transferred to a vial bottle, a scintillator was added thereto, and the radioactivity on the filter was measured by a liquid scintillation counter. The rate of inhibition of (^3H-CGS21680) binding to the A2a receptor by the test compound was calculated using the following equation, and from this rate of inhibition, IC50 was calculated. […]
The total binding amount is ^3H-CGS21680 binding radioactivity in the absence of the test compound. The non-specific binding amount is ^3H-CGS21680 binding radioactivity in the presence of […] of RPIA. The binding amount in the presence of drug is ^3H-CGS21680 binding radioactivity in the presence of the test compound of various concentrations. […]

[2] = molecular target: T2, Human adenosine A2b receptor (Homo sapiens, UniProt P29275); assay: Inhibition of NECA-stimulated cAMP production in receptor-expressing CHOK1 cells; type: cell-based; settings: CHOK1 cells over-expressing human A2b receptor, NECA 30 nM
T2 construct: expressed in transfected cells; host or cells: CHOK1 cells
T2 sequence (P29275 1-332): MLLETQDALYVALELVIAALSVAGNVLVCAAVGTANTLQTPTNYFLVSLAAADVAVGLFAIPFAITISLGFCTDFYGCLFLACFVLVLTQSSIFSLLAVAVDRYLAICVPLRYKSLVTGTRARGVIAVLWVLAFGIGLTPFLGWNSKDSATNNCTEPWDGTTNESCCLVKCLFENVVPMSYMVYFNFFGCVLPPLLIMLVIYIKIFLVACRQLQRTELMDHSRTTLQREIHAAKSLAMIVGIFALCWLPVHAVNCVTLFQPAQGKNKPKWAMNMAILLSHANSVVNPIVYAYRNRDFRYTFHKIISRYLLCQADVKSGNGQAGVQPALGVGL
Method: Human adenosine A2b receptor cDNA was over-expressed in CHOK1 cells. The cells were uniformly placed on a 24-well plate at a density of 1.5×10^5cells/well, incubated overnight and then used for the assays. Affinity of the test compound for the A2b receptor was evaluated by using, as an index, the rate of suppression of the amount of cAMP produced by stimulation of an adenosine agonist NECA (30 nM) in the presence of the test compound. Thus, the plate was washed twice with 2 ml/well of Krebs-Ringer-Bicarbonate buffer (KRB) (mM) (NaCl 118, KCl 4.8, KH2PO4 1.2, MgSO4 1.2, CaCl2 3.4, HEPES 10, NaHCO3 25, pH 7.4) and then pre-incubated (0.5 ml/well) for 30 minutes. Thereafter, a mixed solution containing 600 μM Ro-20-1724 (phosphodiesterase inhibitor), 180 nM NECA, and a test compound at a concentration 6-times higher than in the reaction solution was added in an amount of […]. After 15 minutes, the reaction was stopped by replacing the reaction solution by 0.1 N HCl (300 μl/well). Measurement of cAMP was carried out using an Amersham cAMP EIA Kit.
The rate of inhibition of NECA-stimulated cAMP production by the test compound was calculated using the following equation: Rate of Inhibition (%)=[1−{(cAMP amount in the presence of NECA and test compound-Basal cAMP amount)/(cAMP amount stimulated only by NECA−Basal cAMP amount)}]×100.
IC50 was calculated from the rate of inhibition.

[3] = system: spontaneously diabetic mice (KK-Ay/Ta Jcl); assay: Action on hyperglycemia in spontaneously diabetic mice (single administration); type: in vivo; settings: male KK-Ay/Ta Jcl mice, 10 mg/kg oral, p < 0.01 vs. control (72.5 ± 3.7)
Method: Animals: Seven male KK-A^y/Ta Jcl mice for each group (purchased from Nippon Clair) Preparation and Administration of Test Compound: A test compound in a dose as shown in Table 1 was suspended in 0.5% aqueous methyl cellulose solution and was orally administered in a volume of 10 ml/kg. Collection of Blood Samples and Determination of Blood Sugar: Blood was collected from tail veins just before administration of the test compound and also 5 hours after the administration and blood sugar was determined. Method: Tail vein of a mouse was injured by a razor without anesthetization to bleed slightly. The blood (15 μl) was collected and immediately mixed with 135 μl of 0.6 M perchloric acid. Glucose in the supernatant separated by centrifugation (at 1500 g for10 minutes at 4° C. usingacooling centrifuge GS-6KR from Beckmann) was determined by Glucose CII Test Wako (Wako Pure Chemicals). The results are shown in terms of “(% ratio of blood sugar 5 hours after the administration to the blood sugar before the administration)±(standard error)”. The data were subjected to one-way layout analysis of variance and then subjected to multiple comparison of Dunnett type. Difference with p<0.05 was deemed significant.

Compound	IC50 [1]	Ki (adenosine A2a receptor)	IC50 [2]	% ratio of blood sugar 5 hours after the administration to the blood sugar before the administration ± standard error [3]
C=CCn1c(-c2cccc(F)c2)nc2c(N)nc(C#CC3(O)CCC3)nc21 [Example 20, 1-{2-[9-Allyl-6-amino-8-(3-fIuorophenyl)-9H-2-purinyl]-1-ethynyl]}-1-cyclobutanol hydrochloride]	8.4 nM	9.6 nM		
Cl.Cn1cc(-n2c(-c3cccc(F)c3)nc3c(N)ncnc32)ccc1=O [Example 5, 5-[6-Amino-8-(3-fluorophenyl)-9H-9-purinyl]-1-methyl-1,2-dihydro-2-pyridinone hdrochloride]	7.6 nM	3.2 nM	11 nM	47.3 ± 7.2%
